What all share (test): NCI tumour cell line growth inhibition, 48 h
Experiment [1] has as its system SN12K1 renal.
Experiment [2] relates to MDA-N.
Experiment [3] concerns HOP-18 NSCLC.
In experiment [4] the test system is M19-MEL melanoma.
The test system of experiment [5] is DMS 273 small cell lung.
Experiment [6] has as its system RXF-631 renal.
Experiment [7] relates to DMS 114 small cell lung.
The test system of experiment [8] is P388 leukemia.
For experiment [9], the system named is SNB-78 CNS.
Experiment [10] concerns DLD-1 colon.
The test system of experiment [11] is KM20L2 colon.

Several values for one entry are separate records, joined by “and”; a condition that tells them apart may be missing. Identical values can stand only once.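 Step 1: Grow cells in 96-well plates. Step 2: Expose to compound for 48 hours at 5 concentrations. Step 3: Interpolate endpoints linearly; if unreached, use highest concentration. Here, GI50 denotes the concentration required for 50% inhibition of growth. The concentration for full growth arrest is given as TGI.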

This note sets out measurements from PubChem BioAssay (NCI).

Turning to `C[C@H](N)C(=O)N[C@@H]1[C@H]2C(=C(O)C[C@@H](O)[C@@H]2O)C(=O)O[C@]1(C)C(Cl)Cl`, the TGI in [1] was 1580 nM; in [3], 4390 nM and 2760 nM; in experiment [4] it was 1220 nM and 2620 nM; in experiment [5] it was 1570 nM and 1440 nM; in experiment [6], 1930 nM; in experiment [7], 980 nM and 1280 nM. For the same compound, the TGI in [8] was 453 nM; in experiment [9], 2100 nM; in experiment [10], 1620 nM and 2430 nM; in experiment [11], 2730 nM and 3230 nM. Also, the GI50 in [2] was 438 nM; in experiment [3] it was 375 nM; in experiment [5], 279 nM; in experiment [10], 185 nM.
